US20160362416A1, “ANTIVIRAL COMPOUNDS” (Gilead Sciences, Inc., priority 2012, published 2016)

Experiments:
[1] = tested on: Y93H in genotype 3a NS5A replicon; test: Resistance mutant replicon assay, genotype 3a NS5A Y93H; format: cell-based, HCV; conditions: Hepatitis C virus, read-out: 3a Y93H (nM)
Protocol: (§1) Evaluation of cell-based anti-HCV activity: Antiviral potency (EC50) was determined using a Renilla luciferase (RLuc)-based HCV replicon reporter assay. To perform the assay for genotype 1 and 2a JFH-1, stable HCV 1a RLuc replicon cells (harboring a dicistronic genotype 1a H77 replicon that encodes a RLuc reporter), stable HCV lb RLuc replicon cells (harboring a dicistronic genotype 1b Conl replicon that encodes a RLuc reporter), or stable HCV 2a JFH-1 Rluc replicon cells (harboring a dicistronic genotype 2a JFH-1 replicon that encodes a RLuc reporter; with L31 present in NS5A) were dispensed into 384-well plates for EC50 assays. To perform the assay for genotype 2a (with M31 present in NS5A) or 2b, NS5A chimeric genotype 2a JFH-1 replicons that encodes a RLuc-Neo reporter and either genotype 2a J6 strain NS5A gene or genotype 2b MD2b-1 strain NS5A gene (both with M31 present) respectively, were either transiently transfected (t) into Huh-Lunet cells or were established as stably replicating replicon cells (s) is provided. Either cells were dispensed into 384-well plates for EC50 assays. To perform the assay for genotype 3 and 4, NS5A chimeric genotype 1b Conl replicons that encodes a Pi-RLuc reporter and either genotype 3a S52 strain NS5A gene or genotype 4a ED43 strain NS5A gene respectively, were transiently transfected (t) into Huh-Lunet cells, which were subsequently dispensed into 384-well plates. Compounds were dissolved in DMSO at a concentration of 10 mM and diluted in DMSO either manually or using an automated pipeting instrument. Serially 3-fold diluted compounds were either manually mixed with cell culture media and added to the seeded cells or directly added to the cells using an automated instrument. DMSO was used as a negative (solvent; no inhibition) control, and the protease inhibitor ITMN-191 was included at a concentration >100×EC50 as a positive control. 72 hours later, cells were lysed and Renilla luciferase activity quantified as recommended by the manufacturer (Promega-Madison, Wis.). Non-linear regression was performed to calculate EC50 values.
(§2) To determine the antiviral potency (EC50) against resistance mutants, resistance mutations, including M28T, Q30R, Q30H, Q30E, L31M, Y93C, Y93H, and Y93N in genotype 1a NS5A, Y93H and L31V/Y93H in genotype 1b NS5A, and Y93H for in genotype 3a NS5A, were introduced individually into either 1a Pi-Rluc or 1b Pi-Rluc replicons by site directed mutagenesis. Replicon RNA of each resistant mutant was transiently transfected into Huh-7-derived cured-51 cells and antiviral potency was determined on these transfected cells as described above.

[2] = tested on: NS5A chimeric genotype 1b Con1 replicon with genotype 3a S52 strain NS5A gene; test: HCV genotype 3a NS5A chimeric replicon assay; format: cell-based; conditions: Hepatitis C virus, 72 h, read-out: 3a (nM)
How it was run: (§3)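 Chimeric replicons for 3a and 4a use a Pi-RLuc reporter and were transiently transfected into Huh-Lunet cells; the 2b chimera (RLuc-Neo) was likewise transient in Huh-Lunet; 1b cells are stable. Cells were exposed to 3-fold serial compound dilutions for 72 h, then lysed. EC50s came from non-linear regression of Renilla luciferase signal.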

[3] = tested on: NS5A chimeric genotype 2a JFH-1 replicon with genotype 2b MD2b-1 strain NS5A gene (M31); test: HCV genotype 2b NS5A chimeric replicon assay, transient (t); format: cell-based; conditions: Hepatitis C virus, 72 h, read-out: 2b (t) (nM)
Protocol: as §1

[4] = tested on: NS5A chimeric genotype 2a JFH-1 replicon with genotype 2a J6 strain NS5A gene (M31); test: HCV genotype 2a J6 NS5A chimeric replicon assay, transient (t); format: cell-based; conditions: Hepatitis C virus, 72 h, read-out: 2a J6 (t) (nM)
[5] = tested on: Y93N in genotype 1a NS5A replicon; test: Resistance mutant replicon assay, genotype 1a NS5A Y93N; format: cell-based, HCV; conditions: Hepatitis C virus, read-out: 1a Y93N (nM)
Protocol: as §1, §2

[6] = tested on: stable HCV 2a JFH-1 Rluc replicon cells (L31 present in NS5A); test: HCV genotype 2a JFH-1 RLuc replicon reporter assay; format: cell-based; conditions: Hepatitis C virus, 72 h, read-out: 2a JFH (nM)
[7] = tested on: stable HCV 1a RLuc replicon cells (genotype 1a H77 replicon); test: HCV genotype 1a RLuc replicon reporter assay; format: cell-based; conditions: Hepatitis C virus; stable genotype 1a H77 RLuc replicon cells, 72 hours
[8] = tested on: Y93H in genotype 1a NS5A replicon; test: Resistance mutant replicon assay, genotype 1a NS5A Y93H; format: cell-based, HCV; conditions: Hepatitis C virus, read-out: 1a Y93H (nM)
Protocol: as §1, §2

[9] = tested on: NS5A chimeric genotype 1b Con1 replicon with genotype 4a ED43 strain NS5A gene; test: HCV genotype 4a NS5A chimeric replicon assay; format: cell-based; conditions: Hepatitis C virus, 72 h, read-out: 4a (s) (nM)
[10] = tested on: stable HCV 1b RLuc replicon cells (genotype 1b Con1 replicon); test: HCV genotype 1b RLuc replicon reporter assay; format: cell-based; conditions: Hepatitis C virus; stable genotype 1b Con1 RLuc replicon cells, 72 hours
How it was run: as §3

[11] = tested on: Q30E in genotype 1a NS5A replicon; test: Resistance mutant replicon assay, genotype 1a NS5A Q30E; format: cell-based, HCV; conditions: Hepatitis C virus, read-out: 1a Q30E (nM)
Protocol: as §1, §2

[12] = tested on: NS5A chimeric genotype 2a JFH-1 replicon with genotype 2b MD2b-1 strain NS5A gene (M31); test: HCV genotype 2b NS5A chimeric replicon assay, stable (s); format: cell-based; conditions: Hepatitis C virus, 72 h, read-out: 2b (s) (nM)

SMILES	EC50 [1]	EC50 [2]	EC50 [3]	EC50 [4]	EC50 [5]	EC50 [6]	EC50 [7]	EC50 [8]	EC50 [9]	EC50 [10]	EC50 [11]	EC50 [12]
COC(=O)N[C@H](C(=O)N1[C@H](c2ncc(-c3ccc4c(c3)COc3cc5c(ccc6nc([C@@H]7CC[C@H](C)N7C(=O)[C@@H](NC(=O)OC)C7C[C@@H](C)O[C@H](C)C7)[nH]c65)cc3-4)[nH]2)C[C@@H]2CCC[C@@H]21)C(C)C (stereo partly drawn) [Example AY, methyl {(2S)-1-[(2S,3aS,6aS)-2-(5-{2-[(2S,5S)-1-{(2S)-2-[(2R,6R)-2,6-dimethyltetrahydro-2H-pyran-4-yl]-2-[(methoxycarbonyl)amino]acetyl}-5-methylpyrrolidin-2-yl]-1,11-dihydroisochromeno[4′,3′:6,7]naphtho[1,2-d]imidazol-9-yl}-1H-imidazol-2-yl)hexahydrocyclopenta[b]pyrrol-1(2H)-yl]-3-methyl-1-oxobutan-2-yl}carbamate]	8.48 nM	0.023 nM	0.03 nM	0.013 nM	1.18 nM	0.018 nM	0.027 nM	0.531 nM	0.011 nM	0.028 nM	–	–
COC(=O)N[C@H](C(=O)N1[C@H](c2ncc(-c3ccc4c(c3)COc3cc5c(ccc6nc([C@@H]7CC[C@H](C)N7C(=O)[C@@H](NC(=O)OC)C7CCOCC7)[nH]c65)cc3-4)[nH]2)C[C@@H]2CCC[C@@H]21)C(C)C [Comp 8, reference compound]	–	0.071 nM	–	–	4.58 nM	–	0.028 nM	1.9 nM	–	0.04 nM	0.979 nM	0.113 nM
CC[C@H]1C[C@@H](c2ncc(-c3ccc4c(c3)COc3cc5c(ccc6nc([C@@H]7CC[C@H](C)N7C(=O)[C@@H](NC(=O)OC)C(C)C)[nH]c65)cc3-4)[nH]2)N(C(=O)[C@@H](NC(=O)OC)C2C[C@@H](C)O[C@H](C)C2)C1 (stereo partly drawn) [Example AE, Methyl [(1S)-1-[(2R,6R)-2,6-dimethyltetrahydro-2H-pyran-4-yl]-2-{(2S,4S)-4-ethyl-2-[5-(2-{(2S,5S)-1-[N-(methoxycarbonyl)-L-valyl]-5-methylpyrrolidin-2-yl}-1,11-dihydroisochromeno[4′,3′:6,7]naphtho[1,2-d]imidazol-9-yl)-1H-imidazol-2-yl]pyrrolidin-1-yl}-2-oxoethyl]carbamate]	6.93 nM	0.027 nM	0.038 nM	0.042 nM	1.12 nM	0.012 nM	0.024 nM	0.23 nM	0.011 nM	0.022 nM	–	–
COC(=O)N[C@H](C(=O)N1[C@@H](C)CC[C@H]1c1ncc(-c2ccc3c(c2)COc2cc4c(ccc5nc([C@@H]6CCCN6C(=O)[C@@H](NC(=O)OC)C6C[C@@H](C)O[C@H](C)C6)[nH]c54)cc2-3)[nH]1)C(C)C (stereo partly drawn) [Example AW, methyl {(2S)-1-[(2S,5S)-2-(5-{2-[(2S)-1-{(2S)-2-[(2R,6R)-2,6-dimethyltetrahydro-2H-pyran-4-yl]-2-[(methoxycarbonyl)amino]acetyl}pyrrolidin-2-yl]-1,11-dihydroisochromeno[4′,3′:6,7]naphtho[1,2-d]imidazol-9-yl}-1H-imidazol-2-yl)-5-methylpyrrolidin-1-yl]-3-methyl-1-oxobutan-2-yl}carbamate]	1.51 nM	0.015 nM	0.029 nM	0.021 nM	1.47 nM	0.011 nM	0.029 nM	0.704 nM	0.008 nM	0.07 nM	–	–
COC(=O)N[C@H](C(=O)N1[C@@H](C)CC[C@H]1c1ncc(-c2ccc3c(c2)COc2cc4c(ccc5nc([C@@H]6C[C@H](C)CN6C(=O)[C@@H](NC(=O)OC)C6CCOCC6)[nH]c54)cc2-3)[nH]1)C(C)C [Comp 13, reference compound]	4.4 nM	–	–	–	2.13 nM	–	0.025 nM	1.07 nM	4.4 nM	0.048 nM	0.371 nM	0.048 nM
COC(=O)N[C@H](C(=O)N1[C@@H](C)CC[C@H]1c1ncc(-c2ccc3c(c2)COc2cc4c(ccc5nc([C@@H]6C[C@H](C)CN6C(=O)[C@@H](NC(=O)OC)C6C[C@@H](C)O[C@H](C)C6)[nH]c54)cc2-3)[nH]1)C(C)C (stereo partly drawn) [Example AV, methyl {(2S)-1-[(2S,5S)-2-(5-{2-[(2S,4S)-1-{(2S)-2-[(2R,6R)-2,6-dimethyltetrahydro-2H-pyran-4-yl]-2-[(methoxycarbonyl)amino]acetyl}-4-methylpyrrolidin-2-yl]-1,11-dihydroisochromeno[4′,3′:6,7]naphtho[1,2-d]imidazol-9-yl}-1H-imidazol-2-yl)-5-methylpyrrolidin-1-yl]-3-methyl-1-oxobutan-2-yl}carbamate]	2.39 nM	0.029 nM	0.015 nM	0.008 nM	1.05 nM	0.011 nM	0.036 nM	0.14 nM	0.013 nM	0.036 nM	–	–
CC[C@H](C)[C@H](NC(=O)OC)C(=O)N1[C@H](c2ncc(-c3ccc4c(c3)COc3cc5c(ccc6nc([C@@H]7CC[C@H](C)N7C(=O)[C@@H](NC(=O)OC)C7C[C@@H](C)O[C@H](C)C7)[nH]c65)cc3-4)[nH]2)C[C@@H]2CCC[C@@H]21 (stereo partly drawn) [Example BG, methyl{(2S,3S)-1-[(2S,3aS,6aS)-2-(5-{2-[(2S,5S)-1-{(2S)-2-[(2R,6R)-2,6-dimethyltetrahydro-2H-pyran-4-yl]-2-[(methoxycarbonyl)amino]acetyl}-5-methylpyrrolidin-2-yl]-1,11-dihydroisochromeno[4′,3′:6,7]naphtho[1,2-d]imidazol-9-yl}-1H-imidazol-2-yl)hexahydrocyclopenta[b]pyrrol-1(2H)-yl]-3-methyl-1-oxopentan-2-yl}carbamate]	5.58 nM	0.028 nM	–	0.045 nM	0.883 nM	0.017 nM	0.02 nM	0.364 nM	0.017 nM	0.018 nM	–	0.039 nM
